# From US9745295B2, “Thiazole-substituted aminoheteroaryls as spleen tyrosine kinase inhibitors” (Merck Sharp & Dohme Corp., priority 2013, dated 2017)
# Target: T1, recombinant human GST-SYK (Homo sapiens, UniProt P43405)
# T1 construct: purchased Carna Biosciences 08-176
# Assay: Homogeneous Time-Resolved Fluorescence (HTRF) assay for the recombinant human Syk enzyme
# Type: biochemical
# Conditions: recombinant human GST-SYK 5 pM, ATP 25 μM, read-out: rhSYK IC50
# Experimental: Homogeneous Time-Resolved Fluorescence (HTRF) Assay for the Recombinant Human Syk Enzyme
# A recombinant GST-hSYK fusion protein was used to measure potency of compounds to inhibit human Syk activity. The recombinant human GST-SYK (Carna Biosciences #08-176) (5 pM final concentration) was incubated with various concentrations of the inhibitor diluted in DMSO (0.1% final concentration) for 10 minutes at room temperature in 15 mM Tris-HCl (pH 7.5), 0.01% tween 20, 2 mM DTT in 384 well plate format. To initiate the reaction the biotinylated substrate peptide (250 nM final concentration) that contains the phosphorylation site for Syk was added with magnesium (5 mM final concentration) and ATP (25 μM final concentration). Final volume of the reaction was 10 μL. Phosphorylation of the peptide was allowed to proceed for 45′ at room temperature. To quench the reaction and detect the phosphorylated product, 2 nM of a Europium-anti-phosphotyrosine antibody (Perkin Elmer #AD0161) and 70 nM SA-APC (Perkin-Elmer #CR130-100) were added together in 15 mM Tris pH 7.5, 40 mM EDTA, 0.01% tween 20. Final volume of the quenching solution was 10 μL.
# The resulting HTRF signal was measured after 30 minutes on an EnVision (Perkin-Elmer) reader using a time-resolved fluorescence protocol. Table A below lists activities as IC50 values (nM) for representative compounds of the invention.
row,Compound,IC50
1,"Cc1cc(Nc2cc(C(F)(F)F)ncn2)nc(-c2cnc([C@@]3(O)CC[C@H](C(N)=O)[C@H](C)C3)s2)c1 (relative stereo) [Example 1.19, rel-(1S,2R,4R or S)-4-hydroxy-2-methyl-4-[5-(4-methyl-6-{[6-(trifluoromethyl)pyrimidin-4-yl]amino}pyridin-2-yl)-1,3-thiazol-2-yl]cyclohexane-carboxamide]",0.42 nM
2,"Cc1cc(Nc2nccc(OC(C)C)n2)cc(-c2cnc([C@@]3(O)CC[C@H](C(N)=O)C(C)(C)C3)s2)n1 (single isomer, unassigned) [Example 1.1, (1S,4R or 1R,4S)-4-hydroxy-4-(5-(4-((4-isopropoxypyrimidin-2-yl)amino)-6-methylpyridin-2-yl)thiazol-2-yl)-2,2-dimethylcyclohexanecarboxamide]",1.1 nM
3,"Cc1cc(Nc2cc(C(F)(F)F)ncn2)nc(-c2cnc([C@@]3(O)CC[C@H](C(=O)O)[C@H](C)C3)s2)c1 (single isomer, unassigned) [Example 1.3, rel-(1S,2R,4R or S)-4-hydroxy-2-methyl-4-[5-(4-methyl-6-{[6-(trifluoromethyl)pyrimidin-4-yl]amino}pyridin-2-yl)-1,3-thiazol-2-yl] cyclohexane-carboxylic acid]",0.938 nM
4,"Cc1cc(Nc2cc(C(F)(F)F)ncn2)nc(-c2cnc([C@@]3(O)CC[C@H](C(=O)O)[C@H](C)C3)s2)c1 (single isomer, unassigned) [Example 1.4, rel-(1S,2R,4R or S)-4-hydroxy-2-methyl-4-[5-(4-methyl-6-{[6-(trifluoromethyl)pyrimidin-4-yl]amino}pyridin-2-yl)-1,3-thiazol-2-yl]cyclohexane-carboxylic acid]",0.475 nM
5,"Cc1cc(Nc2cc(C(F)(F)F)ncn2)nc(-c2cnc(C3(O)CCC(C(=O)O)C(C)(C)C3)s2)c1 (single isomer, unassigned) [Example 1.6, (1S,4R or 1R,4S)-4-hydroxy-2,2-dimethyl-4-[5-(4-methyl-6-{[6-(trifluoromethyl)pyrimidin-4-yl]amino}pyridin-2-yl)-1,3-thiazol-2-yl] cyclohexane-carboxylic acid]",0.441 nM
6,"Cc1cc(Nc2cc(C(F)(F)F)ncn2)nc(-c2cnc(C3(O)CCC(C(=O)O)C(C)(C)C3)s2)c1 (single isomer, unassigned) [Example 1.7, (1S,4R or 1R,4S)-4-hydroxy-2,2-dimethyl-4-[5-(4-methyl-6-{[6-(trifluoromethyl)pyrimidin-4-yl]amino}pyridin-2-yl)-1,3-thiazol-2-yl] cyclohexane-carboxylic acid]",2.62 nM
7,"Cc1cc(Nc2nccc(C(F)(F)F)n2)cc(-c2cnc(C3(O)CCC(C(=O)O)C(C)(C)C3)s2)n1 (single isomer, unassigned) [Example 1.9, (1S,4R or 1R,4S)-4-hydroxy-2,2-dimethyl-4-[5-(6-methyl-4-{[4-(trifluoromethyl)pyrimidin-2-yl]amino}pyridin-2-yl)-1,3-thiazol-2-yl] cyclohexane-carboxylic acid]",2.1 nM
8,"Cc1cc(Nc2cc(C(F)(F)F)ccn2)nc(-c2cnc(C3(O)CCC(C(=O)O)C(C)(C)C3)s2)n1 (single isomer, unassigned) [Example 1.11, (1S,4R or 1R,4S)-4-hydroxy-2,2-dimethyl-4-[5-(4-methyl-6-{[4-(trifluoromethyl)pyridin-2-yl]amino}pyrimidin-2-yl)-1,3-thiazol-2-yl] cyclohexane-carboxylic acid]",0.123 nM
9,"Cc1cc(Nc2cc(C(F)(F)F)ccn2)nc(-c2cnc(C3(O)CCC(C(=O)O)C(C)(C)C3)s2)n1 (single isomer, unassigned) [Example 1.12, (1S,4R or 1R,4S)-4-hydroxy-2,2-dimethyl-4-[5-(4-methyl-6-{[4-(trifluoromethyl)pyridin-2-yl]amino}pyrimidin-2-yl)-1,3-thiazol-2-yl]cyclohexane-carboxylic acid]",0.698 nM
10,"CC1(C)CC(O)(c2ncc(-c3nccc(Nc4cc(C(F)(F)F)ccn4)n3)s2)CCC1C(=O)O (single isomer, unassigned) [Example 1.13, (1S,4R or 1R,4S)-4-hydroxy-2,2-dimethyl-4-[5-(4-{[4-(trifluoromethyl)pyridin-2-yl]amino}pyrimidin-2-yl)-1,3-thiazol-2-yl]cyclohexane-carboxylic acid]",0.564 nM
11,"CC1(C)CC(O)(c2ncc(-c3nccc(Nc4cc(C(F)(F)F)ccn4)n3)s2)CCC1C(=O)O (single isomer, unassigned) [Example 1.14, 4-hydroxy-2,2-(1S,4R or 1R,4S)-dimethyl-4-[5-(4-{[4-(trifluoromethyl)pyridin-2-yl]amino}pyrimidin-2-yl)-1,3-thiazol-2-yl] cyclohexane-carboxylic acid]",12.1 nM
12,"Cc1cc(Nc2cc(C(F)(F)F)ncn2)nc(-c2cnc(C3(O)CCC(C(N)=O)C(C)C3)s2)c1 (single isomer, unassigned) [Example 1.17, rel-(1S,2R,4R or S)-4-hydroxy-2-methyl-4-[5-(4-methyl-6-{[6-(trifluoromethyl)pyrimidin-4-yl]amino}pyridin-2-yl)-1,3-thiazol-2-yl] cyclohexane-carboxamide]",1.25 nM
13,"Cc1cc(Nc2cc(C(F)(F)F)ncn2)nc(-c2cnc(C3(O)CCC(C(N)=O)C(C)C3)s2)c1 (single isomer, unassigned) [Example 1.18, rel-(1S,2R,4R or S)-4-hydroxy-2-methyl-4-[5-(4-methyl-6-{[6-(trifluoromethyl)pyrimidin-4-yl]amino}pyridin-2-yl)-1,3-thiazol-2-yl] cyclohexane-carboxamide]",1.52 nM
14,"Cc1cc(Nc2nccc(C(F)(F)F)n2)cc(-c2cnc(C(C)(O)c3ccc(C(=O)O)cc3)s2)n1 (single isomer, unassigned) [Example 1.20, (R or S)-4-(1-hydroxy-1-(5-(6-methyl-4-((4-(trifluoromethyl)pyrimidin-2-yl)amino)pyridin-2-yl)thiazol-2-yl)ethl)benzoic acid]",0.289 nM
15,"Cc1cc(Nc2nccc(C(F)(F)F)n2)cc(-c2cnc(C(C)(O)c3ccc(C(=O)O)cc3)s2)n1 (single isomer, unassigned) [Example 1.21, (R or S)-4-(1-hydroxy-1-(5-(6-methyl-4-((4-(trifluoromethyl)pyrimidin-2-yl)amino)pyridin-2-yl)thiazol-2-yl)ethyl)benzoic acid]",5.91 nM
16,"Cc1cc(Nc2cncc(C(F)(F)F)n2)cc(-c2cnc(C3(O)CCC(C(=O)O)C(C)(C)C3)s2)c1 (single isomer, unassigned) [Example 2.4, (1S,4R or 1R,4S)-4-hydroxy-2,2-dimethyl-4-[5-(3-methyl-5-{[6-(trifluoromethyl)pyrazin-2-yl]amino}phenyl)-1,3-thiazol-2-yl]cyclohexane-carboxylic acid]",4200 nM
17,"Cc1cc(Nc2cccc(C(F)(F)F)n2)cc(-c2cnc(C3(O)CCC(C(=O)O)C(C)(C)C3)s2)c1 (single isomer, unassigned) [Example 2.5, (1S,4R or 1R,4S)-4-hydroxy-2,2-dimethyl-4-[5-(3-methyl-5-{[6-(trifluoromethyl)pyridin-2-yl]amino}phenyl)-1,3-thiazol-2-yl]cyclohexane-carboxylic acid]",2820 nM
18,"Cc1cc(Nc2cnccn2)nc(-c2cnc(C3(O)CCCc4cc(C(=O)O)ccc43)s2)c1 (single isomer, unassigned) [Example 2.6, (R or S)-5-hydroxy-5-{5-[4-methyl-6-(pyrazin-2-ylamino)pyridin-2-yl]-1,3-thiazol-2-yl}-5,6,7,8-tetrahydronaphthalene-2-carboxylic acid]",0.0289 nM
19,"Cc1cc(Nc2cc(C(F)(F)F)ncn2)nc(-c2cnc(C3(O)CCCc4cc(C(=O)O)ccc43)s2)c1 (single isomer, unassigned) [Example 2.7, (R or S)-5-hydroxy-5-[5-(4-methyl-6-{[6-(trifluoromethyl)pyrimidin-4-yl]amino}pyridin-2-yl)-1,3-thiazol-2-yl]-5,6,7,8-tetrahydronaphthalene-2-carboxylic acid]",0.516 nM
20,"Cc1cc(Nc2cccnn2)nc(-c2cnc(C3(O)CCCc4cc(C(=O)O)ccc43)s2)c1 (single isomer, unassigned) [Example 2.8, (R or S)-5-hydroxy-5-{5-[4-methyl-6-(pyridazin-3-ylamino)pyridin-2-yl]-1,3-thiazol-2-yl}-5,6,7,8-tetrahydronaphthalene-2-carboxylic acid]",46.5 nM
21,"Cc1cc(Nc2cc(C)ncn2)nc(-c2cnc(C3(O)CCCc4cc(C(=O)O)ccc43)s2)c1 (single isomer, unassigned) [Example 2.9, (R or S)-5-hydroxy-5-(5-{4-methyl-6-[(6-methylpyrimidin-4-yl)amino]pyridin-2-yl}-1,3-thiazol-2-yl)-5,6,7,8-tetrahydronaphthalene-2-carboxlic acid]",0.212 nM
22,"Cc1cc(Nc2cc(C3CCCCC3)ncn2)nc(-c2cnc(C3(O)CCCc4cc(C(=O)O)ccc43)s2)c1 (single isomer, unassigned) [Example 2.10, (R or S)-5-(5-{6-[(6-cyclohexylpyrimidin-4-yl)amino]-4-methylpyridin-2-yl}-1,3-thiazol-2-yl)-5-hydroxy-5,6,7,8-tetrahydronaphthalene-2-carboxylic acid]",1.12 nM
